Measured values taken from patent US10940139B2, “Compounds that interact with the Ras superfamily for the treatment of cancers, inflammatory diseases, rasopathies, and fibrotic disease” (Shy Therapeutics LLC, priority 2017, dated 2021).
Read-outs that look alike come from different tables or passages of the source.

Assays:
Experiment in all cases: Ras GTP binding domain inhibition assay (labeled GTP)
Conditions in all cases: 20 μM compound
[1] = molecular target: KRas G12C/Q61H double mutant (Homo sapiens (Human), UniProt P01116, G12C/Q61H)
How it was run: (§1)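 Labelled-GTP binding: plate-captured His-KRas protein was pre-exposed to compound for 3 h at room temperature (single 20 μM point or dilution series, 1% DMSO, Tris pH 7.5/MgCl2/DTT buffer). Cy3- or Cy5-GTP was then added for 45 min. Washed wells were read for retained fluorescence to give inhibition or IC50.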

[2] = molecular target: KRas G12D/Q61H double mutant (Homo sapiens (Human), UniProt P01116, G12D/Q61H)
How it was run: as §1

KRas Q61H mutant = KRas Q61H mutant (Homo sapiens (Human), UniProt P01116, Q61H)
How it was run: as §1

[3] = read-out: % Inhibition at 20 μM KRas G12C Q61H
[4] = read-out: % Inhibition at 20 μM KRas G12D Q61H
[5] = read-out: % Inhibition at 20 μM KRas Q61H
[6] = KRas G12C/Q61H double mutant, read-out: % Inhibition at 20 μM of K-Ras mutant and wild-type protein, KRas G12C Q61H
[7] = KRas G12D/Q61H double mutant, read-out: % Inhibition at 20 μM of K-Ras mutant and wild-type protein, KRas G12D Q61H
[8] = KRas Q61H, read-out: % Inhibition at 20 μM of K-Ras mutant and wild-type protein, KRas Q61H

Chain of KRas G12D/Q61H double mutant (P01116-2 other isoform, or with tags, fused parts or gaps G12D/Q61H): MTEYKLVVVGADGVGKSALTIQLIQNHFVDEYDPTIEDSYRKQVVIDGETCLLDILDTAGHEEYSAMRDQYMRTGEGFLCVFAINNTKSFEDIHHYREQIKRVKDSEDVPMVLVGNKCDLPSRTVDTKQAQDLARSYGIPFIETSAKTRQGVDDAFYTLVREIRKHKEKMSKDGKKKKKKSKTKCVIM
Chain of KRas G12C/Q61H double mutant (P01116-2 other isoform, or with tags, fused parts or gaps G12C/Q61H): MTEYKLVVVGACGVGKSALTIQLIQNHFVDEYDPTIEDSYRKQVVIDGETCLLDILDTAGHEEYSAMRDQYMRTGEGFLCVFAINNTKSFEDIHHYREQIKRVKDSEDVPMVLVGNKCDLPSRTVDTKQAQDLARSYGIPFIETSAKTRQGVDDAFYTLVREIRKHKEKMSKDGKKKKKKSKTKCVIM
Chain of KRas Q61H mutant (P01116-2 other isoform, or with tags, fused parts or gaps Q61H): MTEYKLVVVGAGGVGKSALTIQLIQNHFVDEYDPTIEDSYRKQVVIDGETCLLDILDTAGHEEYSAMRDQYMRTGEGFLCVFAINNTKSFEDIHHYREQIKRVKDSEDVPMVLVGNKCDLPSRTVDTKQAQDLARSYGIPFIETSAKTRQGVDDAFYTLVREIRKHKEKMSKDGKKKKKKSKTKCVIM

inhibition at 20 µM [1, 3] [%] | inhibition at 20 µM [2, 4] [%] | inhibition at 20 µM (KRas Q61H mutant; [5]) [%] | inhibition at 20 µM [1, 6] [%] | inhibition at 20 µM [2, 7] [%] | inhibition at 20 µM (KRas Q61H mutant; [8]) [%] | SMILES
51 to 75 | 51 to 75 | 51 to 75 |  |  |  | COc1cccc(CC2CN(C(=O)c3csc4c(O)nc(-c5ccccn5)nc34)CCN2)c1 (stereo not drawn) [drawing 2830]
 |  |  | 51 to 75 | 25 to 50 | 51 to 75 | O=C(c1csc2c(O)nc(-c3ccccn3)nc12)N1CCNC(c2ccc(Cl)cc2)C1 (stereo not drawn) [drawing 3525]
 |  |  | 1 to 25 | 1 to 25 | 1 to 25 | OCC1(c2ccc(-c3nc(-c4ccccn4)nc(-c4ccc(C5(CO)CC5)cc4)c3Oc3ccccc3)cc2)CC1 [drawing 3532]
25 to 50 | 25 to 50 | 25 to 50 |  |  |  | COc1ccc(C2CN(C(=O)c3csc4c(O)nc(-c5ccccn5)nc34)CCO2)cc1 (stereo not drawn) [drawing 2768]
25 to 50 | 0 | 51 to 75 |  |  |  | COCCCCNC(=O)c1csc2nc(-c3ccccn3)nc(N(CCOC)CCOC)c12 [drawing 2793]
 |  |  | 1 to 25 | 1 to 25 | 1 to 25 | Cn1cnc(-c2nc(O)c3c(-c4ccccc4)c(-c4ccncc4)sc3n2)c1 [drawing 3528]
51 to 75 | 25 to 50 | 76 to 100 |  |  |  | COc1ccccc1C1CN(C(=O)c2csc3c(O)nc(-c4ccccn4)nc23)CCN1 (stereo not drawn) [drawing 2772]
 |  |  | 1 to 25 | 25 to 50 | 25 to 50 | Nc1nc(-c2ccccn2)nc(C(=O)NCCc2ccncc2)c1Oc1ccccc1 [drawing 3551]
1 to 25 | 25 to 50 | 25 to 50 |  |  |  | Oc1nc(-c2ccccn2)nc2c(-c3ccc(OC4CCOC4)cc3)csc12 (stereo not drawn) [drawing 2862]
25 to 50 | 25 to 50 | 25 to 50 |  |  |  | COc1ccc(CCNC(=O)c2csc3nc(-c4ccccn4)nc(N4CCS(=O)(=O)CC4)c23)cn1 [drawing 2853]
 |  |  | 25 to 50 | 51 to 75 | 25 to 50 | COC(=O)c1c(C)sc2nc(-c3ccccn3)nc(N)c12 [drawing 3485]
1 to 25 | 1 to 25 | 25 to 50 |  |  |  | COCCN(CCOC)c1nc(-c2ccccn2)nc2scc(C(=O)NCCc3ccc(OC)nc3)c12 [drawing 2792]
25 to 50 | 0 | 51 to 75 |  |  |  | N#Cc1ccc(COCC(=O)Nc2ccnc(-c3ccccn3)n2)cc1 [drawing 2796]
1 to 25 | 1 to 25 | 1 to 25 |  |  |  | O=C(NCCc1ccnc(O)c1)c1csc2nc(-c3ccccn3)nc(N3CCOCC3)c12 [drawing 2783]
 |  |  | 1 to 25 | 1 to 25 | 0 | Nc1nc(O)c2sc(-c3cccc(C(=O)NC4CCNC4=O)c3)cc2n1 (stereo not drawn) [drawing 3542]
51 to 75 | 25 to 50 | 51 to 75 |  |  |  | O=C(NCCc1cccnc1)c1cc2nc(-c3ccccn3)nc(O)c2s1 [drawing 2843]
 |  |  | 1 to 25 | 0 | 0 | Nc1nc(O)c2sc(-c3cccc(C(=O)NCc4cccc(O)n4)c3)cc2n1 [drawing 3546]
51 to 75 | 25 to 50 | 51 to 75 |  |  |  | O=C(c1csc2c(O)nc(-c3ccccn3)nc12)N1CCNC(Cc2ccccc2)C1 (stereo not drawn) [drawing 2778]
 |  |  | 1 to 25 | 1 to 25 | 1 to 25 | Oc1nc(-c2ccccn2)nc2c(-c3cncc(C(F)F)c3)csc12 [drawing 3507]
51 to 75 | 25 to 50 | 76 to 100 |  |  |  | O=C(c1csc2c(O)nc(-c3ccccn3)nc12)N1CCN(c2cccc(F)c2)CC1 [drawing 2753]

SMILES | inhibition at 20 µM [1, 3] [%] | inhibition at 20 µM [2, 4] [%] | inhibition at 20 µM (KRas Q61H mutant; [5]) [%] | inhibition at 20 µM [1, 6] [%] | inhibition at 20 µM [2, 7] [%] | inhibition at 20 µM (KRas Q61H mutant; [8]) [%]
Oc1nc(-c2ccccn2)nc2c(-c3cc(C(F)(F)F)ccc3F)csc12 [drawing 3465] |  |  |  | 1 to 25 | 1 to 25 | 1 to 25
